Legend:
[1] = Spray liquids in water: appearance and stability after 24 h; assay type: physicochemical; details: for Appearance: spray liquid in water, after 24 h
Experimental: The inventive compounds were used to make spray liquids at relevant use concentration. These spray liquids are produced by mixing the various test substances in water, and the appearance and stability of the spray liquid were assessed after 24 h.
The inventive compounds can be used as 100% substances without need for additional additives or formulation aids to obtain stable spray liquids. They are either water soluble and form clear homogeneous spray liquid or self-emulsifying in the spray liquid and form cloudy homogeneous emulsions that are stable over 24 h. […] Stable spray liquids can only be achieved with pelargonic acid when they are formulated with appropriate emulsifiers and other formulation aids like in the commercial benchmark Vorox.

[2] = tested on: monocotyledonous and dicotyledonous harmful plants (ABUTH, ALOMY, AMARE, DIGSA, ERICA, LOLPE, SOLNI, VIOAR); assay: Greenhouse trials, post emergence herbicidal activity (percent control); assay type: in vivo; details: 5-20% w/v of applied substances, spray volume 500-1000 liters per hectare, broadcast foliar method
Description: Standard post emergence herbicide application procedures were used, as described below, to apply inventive compounds and formulations listed in the tables 1 and 2, as well as the reference materials.
Seed of monocotyledonous and dicotyledonous harmful plants such as Abutilon theophrasti (ABUTH), Alopecurus myosuroides (ALOMY), Amaranthus retroflexus (AMARE), Digitaria Sanguinalis (DIGSA), Erigeron canadensis (ERICA), Lolium perenne (LOLPE), Solanun nigrum (SOLNI), Viola arvensis (VIOAR) were sowed in 18 cm^2 pots. The plants were placed in a greenhouse under controlled environmental conditions, and sub-irrigation. About one week after emergence, seedlings were thinned as needed, including removal of any unhealthy or abnormal plants, to create a uniform series of test pots.
The plants were maintained for the duration of the test in the greenhouse, where they received a mean of 70 μmol m^−2 s^−1 of light per day/night. Temperatures averages about 24° C. during the day and about 20° C. during the night. Plants were sub-irrigated throughout the test to ensure adequate soil moisture levels.
Pots were assigned to different treatment in a randomized experimental design. A set of pots was left untreated as a reference against which effects of the treatments could later be evaluated. Applications of tested formulations were made in a spray cabin model SPK B CT02 designed by CheckTec using the following parameters: • nozzle Lechler LU-120-08, 1000 L/ha, 3 bars, 0.56 m/s • nozzle Lechler LU-120-06, 500 L/ha, 3 bars, 0.7 m/s.
The distance of the nozzle from the plants was between 50 to 53 cms.
After treatment, pots were returned to the greenhouse until ready for evaluation (6 hours after treatment (6HAT), 1 day after treatment (1DAT), and 2 days after treatment (2DAT).
For evaluation of herbicidal effectiveness, all plants in the test were examined by a single technician, who recorded percent control, a visual measurement of the effectiveness of each treatment by comparison with untreated plants. […] The reported % control values represent the average for all replicates of each treatment.

[3] = Volatility from spray deposit on non-permeable leaf cuticles; assay type: physicochemical; details: pelargonic acid 30 g/L, Vorox 130 g/L
Experimental: (§1) The volatility of the test substances from the spray deposit was measured time dependent. All measurements have been carried out using a concentration of 50 g/L of the test substances in the application solution. The reference pelargonic acid was used at a concentration of 30 g/L and the commercial benchmark Vorox was applied at a concentration of 130 g/L. The […] drop volumes of 10 μl of the spray liquids which amounts to 500 μg of test substance were then applied on two different substrates. An inert wettable synthetic substrates and non-permeable leaf cuticles were used as substrates. […] After evaporation of drop water, the substrates were weighed to obtain the initial weight and placed under a sealed box with defined air suction output volume of 30 m^3/h. The volatility has been determined after the desired measurement time of 4 h, 24 h and 48 h by weighing of the substrates to obtain the remaining weight of the test substances. The fraction of remaining test substance in % is obtained by the ratio of remaining test substance compared to the initial weight of test substance. The volatilized amount was calculated by subtraction of the remaining test substance of the initial applied amount. The volatilized fraction of test substance in % is obtained by the ratio of volatilized test substance compared to the initial weight of test substance. A substrate without test substance is used as reference to account for changes in environmental conditions such as humidity. Concentrations used are based on ca. 3% pelargonic acid equivalent

[4] = Volatility from spray deposit on inert wettable synthetic substrates; assay type: physicochemical; details: pelargonic acid 30 g/L, Vorox 130 g/L
Experimental: as §1

[5] = tested on: Fruit trees (apple trees); assay: Plant growth regulator activity: blossom thinning in orchards (greenhouse and field trial); assay type: in vivo; details: A1 diluted in water 1-10%, about 2 to about 15 liters per apple tree
Description: Fruit trees were sprayed with substance A1 (Pelargonic acid 6 EO ester methyl ether), several days before the expected full blossoming in the greenhouse, and also in a field trial to test the blossom thinning, which is used to increase the fruit production.
Plots (3 trees per plot in field trials; 1 tree per plot in greenhouse) were assigned to different treatments in a randomized experimental design. One plot was left untreated as a reference against which effects of the treatments could later be evaluated.
The test substance A1 was diluted in water in a range of 1-10% and the spray solution was sprayed in an amount of about 2 to about 15 liters per apple tree (height: about 2-2.5 m, width: about 1-1.5 m). The Application was made with a high-pressure power backpack sprayer manufactured by SOLO® Kleinmotoren GmbH.
The treated trees were evaluated regarding flower thinning effect, but also regarding undesired effects by chemical injury such as leaf browning, leaf malformation, etc.

[6] = pH 4, 4 h, test substances 50 g/L
[7] = pH 4, 24 h, test substances 50 g/L
[8] = pH 4, 48 h, test substances 50 g/L

Compound: CCCCCCCCC(=O)OCCOCCOCCOCCOCCOCCOC [A1, Pelargonic acid 6 EO ester methyl ether]
- Appearance ([1]; amount 5.0 % by wt.): Clear solution
- herbicidal activity against a plurality of the harmful plants [2]: moderately effective to highly effective
- herbicidal activity against several, in particular three or more, of the mentioned harmful plants [2]: highly effective
- Volatilized fraction 4 h [3, 6]: 1.5%
- Volatilized fraction 24 h [3, 7]: 4.8%
- Volatilized fraction 48 h [3, 8]: 5.2%
- Volatilized fraction 4 h [4, 6]: −0.2%
- Volatilized fraction 24 h [4, 7]: 0.6%
- Volatilized fraction 48 h [4, 8]: 1.2%
- undesired effects by chemical injury (leaves, branches, tree) ([5]; evaluated after treatment): without significantly harming the tree
- flower thinning effect ([5]; sprayed several days before full blossoming): excellent results as flower thinning agent

Compound: CCCCCCCCC(=O)OCCOCCOCCOCCOCCOCCOCCOCCOC [A2, Pelargonic acid 8 EO ester methyl ether]
- Appearance ([1]; amount 0.3 % by wt.): Clear solution
- Appearance ([1]; amount 5.0 % by wt.): Clear solution
- herbicidal activity against a plurality of the harmful plants [2]: moderately effective to highly effective
- Volatilized fraction 4 h [3, 6]: 1.7%
- Volatilized fraction 24 h [3, 7]: 2.1%
- Volatilized fraction 48 h [3, 8]: 2.8%
- Volatilized fraction 4 h [4, 6]: −0.3%
- Volatilized fraction 24 h [4, 7]: 0.2%
- Volatilized fraction 48 h [4, 8]: 0.4%

Compound: CCCCCCCCC(=O)OCCOCCOCCOCCOC(C)COCCOCCOC (stereo not shown) [A3, Pelargonic acid 1 PO 6 EO ester methyl ether]
- herbicidal activity against a plurality of the harmful plants [2]: moderately effective to highly effective

Compound: CCCCCCCCC(=O)OC(C)COCCOCCOC (stereo not shown) [A4, Pelargonic acid 1 PO 2 EO ester methyl ether]
- herbicidal activity against a plurality of the harmful plants [2]: moderately effective to highly effective
- herbicidal activity against several, in particular three or more, of the mentioned harmful plants [2]: highly effective

Compound: CCCCCCCCCCOCCOCCOCCOCCOCCOC(=O)CCCCCCCC [A9, Pelargonic acid 5 EO ester decyl ether]
- herbicidal activity against a plurality of the harmful plants [2]: moderately effective to highly effective
- Volatilized fraction 4 h [3, 6]: 8.6%
- Volatilized fraction 24 h [3, 7]: 11.7%
- Volatilized fraction 48 h [3, 8]: 22.8%
- Volatilized fraction 4 h [4, 6]: 0.3%
- Volatilized fraction 24 h [4, 7]: 1.2%
- Volatilized fraction 48 h [4, 8]: 1.9%

Compound: CCCCCCCCC(=O)OCCOCCOCCOCCCCCC [A10, Pelargonic acid 3 EO ester hexyl ether]
- herbicidal activity against a plurality of the harmful plants [2]: moderately effective to highly effective
- Volatilized fraction 4 h [3, 6]: 6.2%
- Volatilized fraction 24 h [3, 7]: 14.7%
- Volatilized fraction 48 h [3, 8]: 18.9%
- Volatilized fraction 4 h [4, 6]: 0.9%
- Volatilized fraction 24 h [4, 7]: 4.4%
- Volatilized fraction 48 h [4, 8]: 7.2%

Compound: C=CCCCCCCCC(=O)OCCOCCOCCOCCOCCOCCOC [A11, Dec-9-enoic acid 6 EO ester methyl ether]
- herbicidal activity against a plurality of the harmful plants [2]: moderately effective to highly effective

Compound: CC(CC(=O)O)CC(C)(C)C (stereo not shown) [A13, 3,5,5-trimethylhexanoic acid]
- herbicidal activity against a plurality of the harmful plants [2]: moderately effective to highly effective

Compound: CCCCCCCCCCC(=O)OCCOCCOCCOCCOCCOCCOC [A15, Undecanoic acid 6 EO ester methyl ether]
- herbicidal activity against a plurality of the harmful plants [2]: moderately effective to highly effective

Compound: CCCCCCCCC(=O)OCCOCCOCCOCCOCCOCCOCC [A16, Pelargonic acid 6 EO ester ethyl ether]
- herbicidal activity against a plurality of the harmful plants [2]: moderately effective to highly effective

Compound: CCCCCCCCC(=O)OCCOCCOCCOCCOCCOCCOC(=O)CCCCCCCC [A17, Pelargonic acid 6 EO diester, reference compound]
- Volatilized fraction 4 h [3, 6]: 0.6%
- Volatilized fraction 24 h [3, 7]: 1.5%
- Volatilized fraction 48 h [3, 8]: 0.6%
- Volatilized fraction 4 h [4, 6]: 0.6%
- Volatilized fraction 24 h [4, 7]: 1.0%
- Volatilized fraction 48 h [4, 8]: 1.3%

Compound: CCCCCCCCC(=O)OCCOCCOCCOCCOCCOCCOCCOCCOC(=O)CCCCCCCC [A18, Pelargonic acid 8 EO diester, reference compound]
- Volatilized fraction 4 h [3, 6]: 0.6%
- Volatilized fraction 24 h [3, 7]: 1.7%
- Volatilized fraction 48 h [3, 8]: 4.0%
- Volatilized fraction 4 h [4, 6]: 0.5%
- Volatilized fraction 24 h [4, 7]: 0.7%
- Volatilized fraction 48 h [4, 8]: 0.9%

Compound: CCCCCCCCC(=O)O [Pelargonic acid, reference compound]
- stability of spray liquid ([1]; 100% substances in water without additional additives or formulation aids): phase separate immediately
- Appearance ([1]; amount 0.3 % by wt.): 2 clear phases
- Appearance ([1]; amount 5.0 % by wt.): 2 clear phases
- herbicidal activity against a plurality of the harmful plants [2]: moderately effective to highly effective
- Volatilized fraction 4 h [3, 6]: 55.7%
- Volatilized fraction 24 h [3, 7]: 78.9%
- Volatilized fraction 48 h [3, 8]: 80.6%
- Volatilized fraction 4 h ([3]; pH 7, 4 h): 29.2%
- Volatilized fraction 24 h ([3]; pH 7, 24 h): 33.8%
- Volatilized fraction 48 h ([3]; pH 7, 48 h): 35.3%
- Volatilized fraction 4 h [4, 6]: 3.9%
- Volatilized fraction 24 h [4, 7]: 19.1%
- Volatilized fraction 48 h [4, 8]: 35.2%
- Volatilized fraction 4 h ([4]; pH 7, 4 h): 7.3%
- Volatilized fraction 24 h ([4]; pH 7, 24 h): 21.3%
- Volatilized fraction 48 h ([4]; pH 7, 48 h): 27.9%

Compound: C8/C10 fatty acid 4 EO ester methyl ether [A5]
- herbicidal activity against a plurality of the harmful plants [2]: moderately effective to highly effective

Compound: C8/C10 fatty acid 6 EO ester methyl ether [A6]
- Appearance ([1]; amount 5.0 % by wt.): Clear solution
- herbicidal activity against a plurality of the harmful plants [2]: moderately effective to highly effective

Compound: C12/C14 fatty acid 3 EO ester methyl ether [A7]
- herbicidal activity against a plurality of the harmful plants [2]: moderately effective to highly effective

Compound: C12/C14 fatty acid 5 EO ester methyl ether [A8]
- herbicidal activity against a plurality of the harmful plants [2]: moderately effective to highly effective

Compound: Dodec-9-enoic acid 3 EO ester methyl ether [A12]
- herbicidal activity against a plurality of the harmful plants [2]: moderately effective to highly effective

Compound: Dodecanoic acid 6 EO ester methyl ether [A14]
- herbicidal activity against a plurality of the harmful plants [2]: moderately effective to highly effective
